# Measured values from publication PMC7578299, “The antiviral effects of baloxavir marboxil against influenza A virus infection in ferrets” (Influenza and Other Respiratory Viruses, 2020).
# Where “and” joins values, the source holds several entries; their conditions need not be identical. Identical values can stand only once. Like-named read-outs stand apart in the source and are kept apart here.
# Key:
# [1] = Stability in plasma, human; format: in vitro ADME; conditions: for % Residual in plasma: BXM 200 ng/mL, 37°C, mean of duplicate; for % Residual in plasma Individual value: BXM, duplicates
# Method: (§1) Approximately 30 mL of blood from Japanese male healthy volunteers was collected and centrifuged to obtain plasma. Blood samples from ferrets, rats, dogs, and monkeys were collected under anesthesia and centrifuged to obtain plasma. BXM was added to reach a final concentration of 200 ng/mL to all pooled plasma samples per species. After incubation for 5, 15, and 30 minutes at 37°C, twofold volume of ice‐cold acetonitrile/methanol (1:1, v/v) was added to the plasma samples to stop further reactions, which were then centrifuged at 1800 g for 10 minutes prior to LC‐MS/MS analysis of BXM in the supernatants.
# [2] = Metabolic stability in liver microsomes, rat; format: in vitro ADME; conditions: for % Residual in liver microsome: 0.5 mg/mL, 2 μmol/L, 37°C, mean of duplicates; for % Residual in liver microsome Individual value: duplicates
# Method: Liver microsomes were prepared from ferrets, rats, dogs, and monkeys, as previously described. ^28 Human liver microsomes were obtained from Sekisui‐XenoTech, LLC and pooled (n = 15). Metabolic stability of the compounds in liver microsomes was tested in duplicate. Oseltamivir and cefcapene pivoxil were used as reference compounds. Liver microsomes at 0.5 mg/mL concentration (final volume of 0.2 mL) were incubated in Tris‐HCl buffer (pH 7.4), containing 50 mmol/L Tris‐HCl, 150 mmol/L KCl, 10 mmol/L MgCl2. The hydrolysis reaction was initiated by applying the test compound solution (final concentration 2 μmol/L). After incubation for 10, 20, and 30 minutes at 37°C, the hydrolysis was terminated by the addition of twofold volume of ice‐cold acetonitrile/methanol (1:1, v/v). Samples were centrifuged at 3000 rpm for 10 minutes prior to LC‐MS/MS analysis of compounds in the supernatants.
# [3] = Stability in plasma, dog; format: in vitro ADME; conditions: for % Residual in plasma: BXM 200 ng/mL, 37°C, mean of duplicate; for % Residual in plasma Individual value: BXM, duplicates
# Method: as §1
# [4] = Pharmacokinetic analysis in ferrets after a single oral administration of BXM; format: in vivo, ferret; conditions: for concentration at 24 h: ferret, oral, read-out: C 24 h; for concentration at 24 h / AUC(0-t) / Cmax / Tmax: plasma; for AUC(0-t) / Cmax / Tmax: po
# Method: One day prior to administration, group assignment was carried out taking body weight into account. Under isoflurane anesthesia, fasted ferrets (four per group) received BXM (10 or 30 mg/5 mL/kg) suspension orally using an intragastric tube. Blood samples were collected at 0.5, 1, 2, 4, 6, 8, and 24 hours after single oral administration of BXM and centrifuged to obtain plasma. The concentrations of BXA and BXM in plasma were determined by liquid chromatography‐tandem mass spectrometry (LC‐MS/MS). The lower limit of quantification of BXA and BXM in ferret plasma was 0.5 ng/mL. The pharmacokinetic parameters of BXA and BXM were calculated using non‐compartmental analysis module in Phoenix WinNonlin software (version 8.0; Certara LP) (https://onlinehelp.certara.com/phoenix/8.2/topics/nca.htm) based on a non‐compartment model analysis with uniform weighting.
# [5] = Stability in plasma, ferret; format: in vitro ADME; conditions: for % Residual in plasma: BXM 200 ng/mL, 37°C, mean of duplicate; for % Residual in plasma Individual value: BXM, duplicates
# Method: as §1
# [6] = Stability in plasma, rat; format: in vitro ADME; conditions: for % Residual in plasma: BXM 200 ng/mL, 37°C, mean of duplicate; for % Residual in plasma Individual value: BXM, duplicates
# Method: as §1
# [7] = Stability in plasma, monkey; format: in vitro ADME; conditions: for % Residual in plasma: BXM 200 ng/mL, 37°C, mean of duplicate; for % Residual in plasma Individual value: BXM, duplicates
# Method: as §1
# [8] = single oral BXM 10 mg/kg, individual ferrets (Ferret-01 to Ferret-04)
# [9] = single oral BXM 30 mg/kg, individual ferrets (Ferret-05 to Ferret-08)
compound,measurement,setting,value
"COC(=O)OCOc1c2n(ccc1=O)N([C@@H]1c3ccccc3SCc3c1ccc(F)c3F)[C@@H]1COCCN1C2=O [BXM, Baloxavir marboxil]",% Residual in plasma,[1]; 10 min,92.3%
same,% Residual in plasma,[1]; 20 min,78.6%
same,% Residual in plasma,[1]; 30 min,63.9%
same,% Residual in plasma Individual value,[1]; 10 minutes,92.7% and 91.8%
same,% Residual in plasma Individual value,[1]; 20 minutes,80.0% and 77.1%
same,% Residual in plasma Individual value,[1]; 30 minutes,65.3% and 62.6%
same,% Residual in liver microsome,[2]; 10 min,25.3%
same,% Residual in liver microsome,[2]; 20 min,4.6%
same,% Residual in liver microsome,[2]; 30 min,0.6%
same,% Residual in liver microsome Individual value,[2]; 10 minutes,25.3% and 25.2%
same,% Residual in liver microsome Individual value,[2]; 20 minutes,4.9% and 4.4%
same,% Residual in liver microsome Individual value,[2]; 30 minutes,0.7% and 0.5%
same,% Residual in plasma,[3]; 10 min,91.6%
same,% Residual in plasma,[3]; 20 min,79.7%
same,% Residual in plasma,[3]; 30 min,75.6%
same,% Residual in plasma Individual value,[3]; 10 minutes,97.0% and 86.3%
same,% Residual in plasma Individual value,[3]; 20 minutes,79.0% and 80.5%
same,% Residual in plasma Individual value,[3]; 30 minutes,74.9% and 76.3%
same,concentration at 24 h,"[4]; 10 mg/kg, single oral BXM 10 mg/kg, 5% SDS water vehicle, mean of four ferrets",28.6 ± 30.4 ng/mL
same,concentration at 24 h,"[4]; 10 mg/kg, single oral BXM 10 mg/kg, mean of four ferrets",50.1 ± 53.3 nM
same,concentration at 24 h,"[4]; 30 mg/kg, single oral BXM 30 mg/kg, 5% SDS water vehicle, mean of four ferrets",36.1 ± 12.3 ng/mL
same,concentration at 24 h,"[4]; 30 mg/kg, single oral BXM 30 mg/kg, mean of four ferrets",63.1 ± 21.5 nM
same,AUC(0-t),"[4]; 10 mg/kg, single oral BXM 10 mg/kg, 5% SDS water vehicle, mean of four ferrets, read-out: AUC0-24 h",715 ± 758 ng·h/mL
same,Cmax,"[4]; 10 mg/kg, single oral BXM 10 mg/kg, 5% SDS water vehicle, mean of four ferrets, read-out: C max",165 ± 179 ng/mL
same,Tmax,"[4]; 10 mg/kg, single oral BXM 10 mg/kg, 5% SDS water vehicle, mean of four ferrets, read-out: T max",1.13 ± 0.63 h
same,AUC(0-t),"[4]; 10 mg/kg, single oral BXM 10 mg/kg, mean of four ferrets, read-out: AUC0-24 h",1.25 ± 1.33 µM·h
same,Cmax,"[4]; 10 mg/kg, single oral BXM 10 mg/kg, mean of four ferrets, read-out: C max",289 ± 312 nM
same,AUC(0-t),"[4]; 30 mg/kg, single oral BXM 30 mg/kg, 5% SDS water vehicle, mean of four ferrets, read-out: AUC0-24 h",1260 ± 150 ng·h/mL
same,Cmax,"[4]; 30 mg/kg, single oral BXM 30 mg/kg, 5% SDS water vehicle, mean of four ferrets, read-out: C max",298 ± 88 ng/mL
same,Tmax,"[4]; 30 mg/kg, single oral BXM 30 mg/kg, 5% SDS water vehicle, mean of four ferrets, read-out: T max",0.875 ± 0.25 h
same,AUC(0-t),"[4]; 30 mg/kg, single oral BXM 30 mg/kg, individual ferrets (Ferret-05 to Ferret-08), read-out: AUC0-24hr, individual data",1450 ng·h/mL
same,Cmax,"[4]; 30 mg/kg, single oral BXM 30 mg/kg, individual ferrets (Ferret-05 to Ferret-08), read-out: Cmax, individual data",392 ng/mL
same,Tmax,"[4]; 30 mg/kg, single oral BXM 30 mg/kg, individual ferrets (Ferret-05 to Ferret-08), read-out: Tmax, individual data",1 h
same,AUC(0-t),"[4]; 30 mg/kg, single oral BXM 30 mg/kg, mean of four ferrets, read-out: AUC0-24 h",2.21 ± 0.25 µM·h
same,Cmax,"[4]; 30 mg/kg, single oral BXM 30 mg/kg, mean of four ferrets, read-out: C max",522 ± 154 nM
same,C 24 h,"[4]; single oral BXM 10 mg/kg, 5% SDS water vehicle, mean of four ferrets",28.6 ng/mL
same,"AUC0-24hr, individual data",[4]; [8],174 ng·h/mL and 539 ng·h/mL and 318 ng·h/mL and 1830 ng·h/mL
same,"C24hr, individual data",[4]; [8],3.59 ng/mL and 35.0 ng/mL and 6.75 ng/mL and 69.0 ng/mL
same,"Cmax, individual data",[4]; [8],101 ng/mL and 79.2 ng/mL and 48.6 ng/mL and 431 ng/mL
same,"Tmax, individual data",[4]; [8],30 min and 120 min
same,C 24 h,"[4]; single oral BXM 30 mg/kg, 5% SDS water vehicle, mean of four ferrets",36.1 ng/mL
same,"AUC0-24hr, individual data",[4]; [9],1200 ng·h/mL and 1110 ng·h/mL and 1290 ng·h/mL
same,"C24hr, individual data",[4]; [9],22.7 ng/mL and 48.5 ng/mL and 28.7 ng/mL and 44.3 ng/mL
same,"Cmax, individual data",[4]; [9],353 ng/mL and 214 ng/mL and 233 ng/mL
same,"Tmax, individual data",[4]; [9],30 min
same,% Residual in plasma,[5]; 10 min,94.7%
same,% Residual in plasma,[5]; 20 min,90.4%
same,% Residual in plasma,[5]; 30 min,77.4%
same,% Residual in plasma Individual value,[5]; 10 minutes,94.0% and 95.4%
same,% Residual in plasma Individual value,[5]; 20 minutes,90.0% and 90.9%
same,% Residual in plasma Individual value,[5]; 30 minutes,77.3% and 77.5%
same,% Residual in plasma,[6]; 10 min,0.0%
same,% Residual in plasma,[6]; 20 min,0.0%
same,% Residual in plasma,[6]; 30 min,0.0%
same,% Residual in plasma Individual value,[6]; 10 minutes,0.0%
same,% Residual in plasma Individual value,[6]; 20 minutes,0.0%
same,% Residual in plasma Individual value,[6]; 30 minutes,0.0%
same,% Residual in plasma,[7]; 10 min,82.9%
same,% Residual in plasma,[7]; 20 min,71.8%
same,% Residual in plasma,[7]; 30 min,55.5%
same,% Residual in plasma Individual value,[7]; 10 minutes,81.5% and 84.4%
same,% Residual in plasma Individual value,[7]; 20 minutes,71.3% and 72.3%
same,% Residual in plasma Individual value,[7]; 30 minutes,56.3% and 54.7%
